Assay results from patent US20230331777A1, “NOVEL PEPTOID COMPOUNDS THAT BIND TO CELL RECEPTOR ACE2 AND PREVENT VIRUS ENTRY INTO CELLS” (priority 2020, published 2023).
Starred links: 1 amine or outer side, 2 acyl side, 3 side chain; linkers in the order of their positions; H or OH if unused. Positions of bridges follow the written chain, without caps; N, C: chain ends. Non-standard residues stand in square brackets, D forms with d. Residues, ends and D or L forms follow the SMILES beside them. Chains are numbered I, II in the order given. N(4-MeOBn)Gly = COc1ccc(CNCC(=O)O)cc1; N((CH2)3OiPr)Gly = CC(C)OCCCNCC(=O)O; X1 = CC(c1ccccc1)N(CC(=O)[*:2])[*:1]; NAllylGly = C=CCNCC(=O)O; Nleu = CC(C)CNCC(=O)O; Nme = COCCNCC(=O)O

Experiments:
[1] = biological target: T1, ACE2 protein (Homo sapiens, UniProt Q9BYF1); experiment: Protein Thermal Shift assay; format: binding; conditions: 10 µM peptoid
Procedure: FIGS. 8A-D illustrate that ACE2P1 and ACE2P2 interact directly with ACE2. FIG. 8A provides experimental results from an in vitro pulldown assay for ACE2P1 and ACE2P2. […] The thermal shift assay was carried out on a QuantStudio 3 Real-Time PCR System.
Next, Applicant created the dimers of ACE2P1 and ACE2P2 (FIG. 8B) and performed thermal shift assays using recombinant ACE2 proteins. Thermal shift assay is routinely used in drug discovery to identify protein-ligand interactions. The Applied Biosystems™ Protein Thermal Shift™ assay measures protein thermal stability using a fluorescent protein-binding dye. […] The protein is mixed with the dye and heated. As it unfolds or melts, hydrophobic parts of the protein are exposed and bind to the dye, resulting in fluorescence emission detected by the qPCR system. Binding of a ligand to the protein changes the stability of the protein, resulting in a change in fluorescence intensity.

[2] = biological target: SARS-CoV-2 spike protein binding to ACE2 (Homo sapiens, UniProt Q9BYF1); experiment: GST pull-down assay of spike protein-ACE2 interaction; conditions: premixed with ACE2 for 30 minutes; ACE2 detected by western blot
[3] = system: SARS-CoV-2 pseudovirus; format: cell-based, human H1299 cells
[4] = system: HEK293T cells; experiment: WST-1 cell viability assay; format: cell-based, human; conditions: various concentrations, 48 hours
Procedure: (§1) MCF-7 and HEK293T cells were treated with various concentrations of ACE2P1D1 (FIG. 12A) or ACE2P2D1 (FIG. 12B) for 48 hours. Cell viability was measured by a WST-1 assay.
(§2) To assess whether the peptoids are toxic to human cells, Applicant performed the WST-1 assay.

[5] = system: MCF-7 cells; experiment: WST-1 cell viability assay; format: cell-based, human; conditions: various concentrations, 48 hours
Procedure: as §1, §2

[6] = biological target: T1, ACE2 protein; experiment: ACE2 enzymatic activity, Mca-YVADAPK(Dnp) fluorescence assay; format: biochemical; conditions: up to 10 µM peptoid; 10 µM Mca-YVADAPK(Dnp), 37° C.
Procedure: (§3) Assays were run at 37° C. in an ACE2 reaction buffer containing 10 µM Mca-YVADAPK(Dnp), in a total volume of 100 µl. Fluorescence emission at 405 nm, after excitation at 320 nm, was measured in a microplate reader. Cleavage of the substrate Mca-YVADAPK(Dnp) by ACE2 enzyme produces fluorescence. The strength of the fluorescence indicates the ACE2 enzymatic activity.
ACE2 is an enzyme that lowers blood pressure by catalyzing the hydrolysis of angiotensin II. […] Applicant assessed the effects of ACE2P1D1 and ACE2P2D1 on ACE2 enzyme activity on recombinant ACE2 protein.

[7] = biological target: T2, ACE2 in MCF-7 cells (Homo sapiens, UniProt Q9BYF1); experiment: ACE2 enzymatic activity in cell homogenates; format: biochemical; conditions: MCF-7 cell homogenates, captopril 10 µM
T2 construct: endogenous in cells; host or cells: MCF-7 cells
Procedure: as §3
(§4) To measure ACE2 activity in cells, cell homogenates were used. To prevent hydrolysis of the substrate by a range of nonmetalloprotease enzymes from the cells, cOmplete™ Protease Inhibitor Cocktail (Roche/Sigma) were added to the cell homogenates. To eliminate the effects of ACE on the substrate, ACE inhibitor captopril (10 µM) was added to the assay.

[8] = biological target: T3, ACE2 in human H1299 cells (Homo sapiens, UniProt Q9BYF1); experiment: ACE2 enzymatic activity in cell homogenates; format: biochemical; conditions: captopril 10 µM
T3 construct: endogenous in cells; host or cells: H1299 human lung cancer cells
Procedure: as §3, §4

[9] = biological target: T4, ACE2 in Caco-2 cells (Homo sapiens, UniProt Q9BYF1); experiment: ACE2 enzymatic activity in cell homogenates; format: biochemical; conditions: Caco-2 cell homogenates, captopril 10 µM
T4 construct: endogenous in cells; host or cells: Caco-2 cells
Procedure: as §3, with “in” for “in an”
as §4

[10] = biological target: T5, ACE2 protein levels on cell surface (Homo sapiens, UniProt Q9BYF1); experiment: ACE2 surface expression by flow cytometry; format: cell-based; conditions: H1299 cells, 48 hours
T5 construct: endogenous in cells; host or cells: H1299 human lung cancer cells
Procedure: H1299 cells were treated with ACE2P1D1 or ACE2P2D1 for 48 hours. ACE2 surface expression was determined by flow cytometry analysis.
Next, Applicant determined whether or not the peptoids in this Example can decrease ACE2 levels on a cell surface.

[11] = biological target: T1, ACE2 protein; experiment: ACE2 expression by western blot; format: cell-based; design: endogenous in cells; host or cells: MCF-7 and Caco-2 cells; conditions: MCF-7 and Caco-2 cells, various doses, 48 hours
Procedure: MCF-7 and Caco-2 cells were treated with various concentrations of ACE2P1D1 or ACE2P2D1 for 48 hours. ACE2 expression was determined by western blot analysis.
As ACE2 is important in blood pressure regulation, Applicant assessed whether the peptoids can decrease ACE2 expression in human cells.

[12] = system: ACE2 expressing MCF-7 cells; experiment: on-bead cell binding of resynthesized peptoids (OBTC two-color); format: cell-based, human; conditions: peptoid on tentagel bead; ACE2+ red stained, ACE2- green stained MCF-7 cells
Procedure: FIG. 6 provides experimental results illustrating that on-bead peptoids ACE2P1 and ACE2P2 bind to human ACE2 positive cells. The compounds ACE2P1 and ACE2P2 were resynthesized on the tentagel bead and incubated with ACE2 expressing MCF-7 cells (red stained) and ACE2 negative MCF-7 cells (green stained) individually as well as 1:1 mixture of red and green cells.
Applicant resynthesized the identified ACE2P1 and ACE2P2 peptoids on-bead and introduced human ACE2^+ (red stained) and ACE2^- (green stained) MCF-7 cells separately to these two peptoid carrying beads.

[13] = biological target: T1, ACE2 protein; experiment: in vitro pulldown assay with peptoid conjugated beads; format: binding; conditions: 4° C. overnight, western blotting
Procedure: To confirm a direct interaction between the peptoids and ACE2, Applicant performed in vitro pulldown assays. Recombinant human ACE2 protein was incubated with ACE2P1 or ACE2P2 conjugated beads at 4° C. overnight. The beads were then washed with PBS buffer for 3 times, and the binding proteins were eluted with 1% SDS. The yielded lysates were then applied onto 10% SDS-PAGE gel and subjected to western blotting (FIG. 8A).

Chain of SARS-CoV-2 spike protein binding to ACE2 (Q9BYF1 18-740): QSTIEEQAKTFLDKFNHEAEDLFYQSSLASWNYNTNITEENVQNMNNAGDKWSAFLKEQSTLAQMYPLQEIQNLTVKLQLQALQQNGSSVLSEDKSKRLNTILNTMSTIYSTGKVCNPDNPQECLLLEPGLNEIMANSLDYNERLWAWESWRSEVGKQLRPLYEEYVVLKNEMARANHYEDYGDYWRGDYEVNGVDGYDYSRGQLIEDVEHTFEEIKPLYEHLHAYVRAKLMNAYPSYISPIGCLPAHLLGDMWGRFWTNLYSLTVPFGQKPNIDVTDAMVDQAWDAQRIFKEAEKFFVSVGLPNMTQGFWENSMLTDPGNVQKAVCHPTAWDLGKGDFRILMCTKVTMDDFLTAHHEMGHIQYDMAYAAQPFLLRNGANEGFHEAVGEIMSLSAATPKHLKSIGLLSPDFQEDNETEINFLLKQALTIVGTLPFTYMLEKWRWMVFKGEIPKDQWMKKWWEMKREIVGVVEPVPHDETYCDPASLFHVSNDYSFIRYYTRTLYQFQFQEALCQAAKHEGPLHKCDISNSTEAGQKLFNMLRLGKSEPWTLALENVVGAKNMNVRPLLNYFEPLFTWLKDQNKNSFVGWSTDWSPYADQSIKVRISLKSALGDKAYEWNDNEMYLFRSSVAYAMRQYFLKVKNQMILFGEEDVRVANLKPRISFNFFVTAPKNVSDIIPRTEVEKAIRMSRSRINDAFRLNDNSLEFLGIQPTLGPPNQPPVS
T1 sequence (Q9BYF1 18-805): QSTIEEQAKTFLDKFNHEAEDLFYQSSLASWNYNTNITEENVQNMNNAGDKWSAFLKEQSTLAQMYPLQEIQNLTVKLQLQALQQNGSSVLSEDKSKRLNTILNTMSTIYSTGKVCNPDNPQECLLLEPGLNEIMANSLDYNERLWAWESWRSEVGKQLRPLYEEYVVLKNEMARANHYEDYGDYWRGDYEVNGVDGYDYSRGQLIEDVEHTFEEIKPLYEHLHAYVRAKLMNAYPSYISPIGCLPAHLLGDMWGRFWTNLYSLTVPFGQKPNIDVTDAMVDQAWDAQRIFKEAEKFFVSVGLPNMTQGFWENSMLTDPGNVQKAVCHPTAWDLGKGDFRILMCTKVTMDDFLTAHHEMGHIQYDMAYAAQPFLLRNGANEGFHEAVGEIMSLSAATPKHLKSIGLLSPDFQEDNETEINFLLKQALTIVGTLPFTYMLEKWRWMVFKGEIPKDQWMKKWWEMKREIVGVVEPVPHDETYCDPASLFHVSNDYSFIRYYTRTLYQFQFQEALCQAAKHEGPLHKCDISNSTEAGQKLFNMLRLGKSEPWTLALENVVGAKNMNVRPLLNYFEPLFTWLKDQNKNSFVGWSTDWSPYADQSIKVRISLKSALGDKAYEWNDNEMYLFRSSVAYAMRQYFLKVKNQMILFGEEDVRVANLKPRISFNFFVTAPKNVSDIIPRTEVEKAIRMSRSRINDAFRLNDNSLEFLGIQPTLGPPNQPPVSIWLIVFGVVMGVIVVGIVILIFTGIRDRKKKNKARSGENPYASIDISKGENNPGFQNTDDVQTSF
T5 sequence (Q9BYF1 18-805): as above
T3 sequence (Q9BYF1 18-805): as above
T4 sequence (Q9BYF1 18-805): as above
T2 sequence (Q9BYF1 18-805): as above

Row | Structure (SMILES) | change in protein melting temperature [1] | binding of spike protein to ACE2 [2] | SARS-CoV-2 pseudovirus infection [3] | cell viability [4] | cell viability [5] | ACE2 enzyme activity [6] | enzymatic activity of ACE2 [7] | enzymatic activity of ACE2 [8] | enzymatic activity of ACE2 [9] | ACE2 protein levels on cell surface [10] | expression levels of ACE2 protein [11] | binding of peptoid beads to ACE2+ versus ACE2- MCF-7 cells [12] | pull down of ACE2 protein [13]
1 | C=CCN(CC(=O)N(CC(=O)NC(CCCCN)C(=O)NC(CCSC)C(=O)NCCCCC(NC(=O)C(CCSC)NC(=O)C(CCCCN)NC(=O)CN(C(=O)CN(CC=C)C(=O)CN(Cc1ccc(OC)cc1)C(=O)CN(C(=O)CN(CCOC)C(=O)CNCC(C)C)C(C)c1ccccc1)C(C)c1ccccc1)C(N)=O)C(C)c1ccccc1)C(=O)CN(Cc1ccc(OC)cc1)C(=O)CN(C(=O)CN(CCOC)C(=O)CNCC(C)C)C(C)c1ccccc1 (stereo not shown) [ACE2P1D1] (I: H-[Nleu][Nme][X1][N(4-MeOBn)Gly][NAllylGly][X1]KMK-NH2 / II: H-[Nleu][Nme][X1][N(4-MeOBn)Gly][NAllylGly][X1]KM; amide I:9-II:C; configuration not given here) | increase in protein melting temperature | prevented the binding of spike protein to ACE2 | effective in inhibiting SARS-CoV-2 pseudovirus infection | no effects on the viability | no effects on the viability | no effects on ACE2 activity | did not affect the enzymatic activity of ACE2 | did not affect the enzymatic activity of ACE2 | did not affect the enzymatic activity of ACE2 | did not decrease the ACE2 protein levels on cell surface | did not decrease the expression levels of ACE2 protein |  | 
2 | C=CCN(CC(=O)N(CC(=O)NC(CCCCN)C(=O)NC(CCSC)C(N)=O)C(C)c1ccccc1)C(=O)CN(Cc1ccc(OC)cc1)C(=O)CN(C(=O)CN(CCOC)C(=O)CNCC(C)C)C(C)c1ccccc1 (stereo not shown) [ACE2P1] (H-[Nleu][Nme][X1][N(4-MeOBn)Gly][NAllylGly][X1]KM-NH2; configuration not given here) |  | increased the binding of spike protein to ACE2 |  |  |  |  |  |  |  |  |  | bound only to red stained ACE2^+ cells | able to pull down the ACE2 protein
3 | COCCN(CC(=O)NC(CCCCN)C(=O)NC(CCSC)C(=O)NCCCCC(NC(=O)C(CCSC)NC(=O)C(CCCCN)NC(=O)CN(CCOC)C(=O)CN(CC(C)C)C(=O)CN(CC(C)C)C(=O)CN(CCCOC(C)C)C(=O)CN(Cc1ccc(OC)cc1)C(=O)CNCc1ccc(OC)cc1)C(N)=O)C(=O)CN(CC(C)C)C(=O)CN(CC(C)C)C(=O)CN(CCCOC(C)C)C(=O)CN(Cc1ccc(OC)cc1)C(=O)CNCc1ccc(OC)cc1 (stereo not shown) [ACE2P2D1] (I: H-[N(4-MeOBn)Gly][N(4-MeOBn)Gly][N((CH2)3OiPr)Gly][Nleu][Nleu][Nme]KMK-NH2 / II: H-[N(4-MeOBn)Gly][N(4-MeOBn)Gly][N((CH2)3OiPr)Gly][Nleu][Nleu][Nme]KM; amide I:9-II:C; configuration not given here) | increase in protein melting temperature | prevented the binding of spike protein to ACE2 | effective in inhibiting SARS-CoV-2 pseudovirus infection | no effects on the viability | no effects on the viability | no effects on ACE2 activity | did not affect the enzymatic activity of ACE2 | did not affect the enzymatic activity of ACE2 | did not affect the enzymatic activity of ACE2 | did not decrease the ACE2 protein levels on cell surface | did not decrease the expression levels of ACE2 protein |  | 
4 | COCCN(CC(=O)NC(CCCCN)C(=O)NC(CCSC)C(N)=O)C(=O)CN(CC(C)C)C(=O)CN(CC(C)C)C(=O)CN(CCCOC(C)C)C(=O)CN(Cc1ccc(OC)cc1)C(=O)CNCc1ccc(OC)cc1 (stereo not shown) [ACE2P2] (H-[N(4-MeOBn)Gly][N(4-MeOBn)Gly][N((CH2)3OiPr)Gly][Nleu][Nleu][Nme]KM-NH2; configuration not given here) |  | increased the binding of spike protein to ACE2 |  |  |  |  |  |  |  |  |  | bound only to red stained ACE2^+ cells | able to pull down the ACE2 protein
